Values of other authors in patent publication US20230183323A1 (BROWN UNIVERSITY, priority 2020, published 2023).
Structures can show the parent of a compound that is named as a salt.

Legend:
Details in all cases: cited from earlier work
CDK1 = CDK1 (Homo sapiens, UniProt P06493)
CDK2 = CDK2 (Homo sapiens, UniProt P24941)
CDK3 = CDK3 (Homo sapiens, UniProt Q00526)
CDK4 = CDK4 (Homo sapiens, UniProt P11802)
CDK6 = CDK6 (Homo sapiens, UniProt Q00534); parameters: key to the marks not given beside the values
CDK7 = CDK7 (Homo sapiens, UniProt P50613); parameters: key: + is used to indicate the potency of the inhibitor; ++++ > +++ > ++ > +; + is used to indicate the potency of the inhibitor; ++++ > +++ > ++ > +; + is used to indicate the potency of the inhibitor; ++++ > +++ > ++ > +; + is used to indicate the potency of the inhibitor; ++++ > +++ > ++ > +; ◯ refers to compounds with inhibitory effects on the related isoform, but without specific value
CDK8 = CDK8 (Homo sapiens, UniProt P49336); parameters: key: + is used to indicate the potency of the inhibitor; ++++ > +++ > ++ > +; + is used to indicate the potency of the inhibitor; ++++ > +++ > ++ > +; + is used to indicate the potency of the inhibitor; ++++ > +++ > ++ > +; + is used to indicate the potency of the inhibitor; ++++ > +++ > ++ > +; ◯ refers to compounds with inhibitory effects on the related isoform, but without specific value
CDK9 = CDK9 (Homo sapiens, UniProt P50750); parameters: key: + is used to indicate the potency of the inhibitor; ++++ > +++ > ++ > +; + is used to indicate the potency of the inhibitor; ++++ > +++ > ++ > +; + is used to indicate the potency of the inhibitor; ++++ > +++ > ++ > +; + is used to indicate the potency of the inhibitor; ++++ > +++ > ++ > +; ◯ refers to compounds with inhibitory effects on the related isoform, but without specific value
CDK9, sequence (O60563 whole entry, canonical isoform): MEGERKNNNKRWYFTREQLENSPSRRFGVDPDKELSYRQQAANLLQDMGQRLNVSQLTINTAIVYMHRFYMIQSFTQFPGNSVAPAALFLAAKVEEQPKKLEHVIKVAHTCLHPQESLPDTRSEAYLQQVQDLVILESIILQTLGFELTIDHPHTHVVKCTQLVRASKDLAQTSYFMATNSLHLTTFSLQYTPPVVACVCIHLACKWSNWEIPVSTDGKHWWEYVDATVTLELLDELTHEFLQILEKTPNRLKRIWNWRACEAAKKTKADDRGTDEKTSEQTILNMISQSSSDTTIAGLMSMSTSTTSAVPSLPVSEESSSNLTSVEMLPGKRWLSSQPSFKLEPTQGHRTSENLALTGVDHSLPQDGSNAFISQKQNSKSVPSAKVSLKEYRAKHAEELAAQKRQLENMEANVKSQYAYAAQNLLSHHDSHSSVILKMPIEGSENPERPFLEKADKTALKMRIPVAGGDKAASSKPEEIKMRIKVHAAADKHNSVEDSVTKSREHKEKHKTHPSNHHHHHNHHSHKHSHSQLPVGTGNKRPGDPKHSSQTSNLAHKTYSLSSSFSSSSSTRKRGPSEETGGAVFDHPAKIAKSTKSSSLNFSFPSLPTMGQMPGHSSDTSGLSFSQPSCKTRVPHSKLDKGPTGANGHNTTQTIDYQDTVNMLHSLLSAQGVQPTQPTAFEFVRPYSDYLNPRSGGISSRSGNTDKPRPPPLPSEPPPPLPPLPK
CDK9, sequence (P50750 whole entry, canonical isoform): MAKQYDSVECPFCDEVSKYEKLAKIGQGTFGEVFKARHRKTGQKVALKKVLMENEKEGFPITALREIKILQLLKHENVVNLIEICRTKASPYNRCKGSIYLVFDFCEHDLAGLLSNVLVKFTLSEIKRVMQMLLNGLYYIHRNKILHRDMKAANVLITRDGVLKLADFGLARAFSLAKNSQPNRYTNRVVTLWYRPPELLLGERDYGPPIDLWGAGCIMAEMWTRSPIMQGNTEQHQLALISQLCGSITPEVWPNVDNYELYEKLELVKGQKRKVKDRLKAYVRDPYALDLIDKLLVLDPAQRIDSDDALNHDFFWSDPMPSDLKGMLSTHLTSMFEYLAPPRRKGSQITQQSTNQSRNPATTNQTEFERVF

CDK7, sequence (P51946 whole entry, canonical isoform): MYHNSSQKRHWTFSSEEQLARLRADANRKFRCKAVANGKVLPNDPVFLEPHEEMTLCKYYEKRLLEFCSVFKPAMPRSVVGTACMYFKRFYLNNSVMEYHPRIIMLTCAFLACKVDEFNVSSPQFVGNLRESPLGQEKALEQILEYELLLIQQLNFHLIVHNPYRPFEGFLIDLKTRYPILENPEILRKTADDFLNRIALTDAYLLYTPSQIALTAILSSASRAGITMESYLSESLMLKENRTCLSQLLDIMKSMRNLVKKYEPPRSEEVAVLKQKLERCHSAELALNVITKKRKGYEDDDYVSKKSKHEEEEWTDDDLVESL
CDK7, sequence (P50613 whole entry, canonical isoform): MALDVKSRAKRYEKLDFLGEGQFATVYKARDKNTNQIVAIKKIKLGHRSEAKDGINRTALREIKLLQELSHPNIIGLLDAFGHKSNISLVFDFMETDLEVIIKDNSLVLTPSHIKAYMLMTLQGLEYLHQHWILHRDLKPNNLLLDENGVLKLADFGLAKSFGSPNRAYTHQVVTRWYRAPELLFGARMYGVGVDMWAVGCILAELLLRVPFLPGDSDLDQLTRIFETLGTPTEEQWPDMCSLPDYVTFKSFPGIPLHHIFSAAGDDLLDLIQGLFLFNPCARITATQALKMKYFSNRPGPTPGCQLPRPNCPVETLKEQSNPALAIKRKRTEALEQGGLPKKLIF
CDK7, sequence (P51948 whole entry, further chain, canonical isoform): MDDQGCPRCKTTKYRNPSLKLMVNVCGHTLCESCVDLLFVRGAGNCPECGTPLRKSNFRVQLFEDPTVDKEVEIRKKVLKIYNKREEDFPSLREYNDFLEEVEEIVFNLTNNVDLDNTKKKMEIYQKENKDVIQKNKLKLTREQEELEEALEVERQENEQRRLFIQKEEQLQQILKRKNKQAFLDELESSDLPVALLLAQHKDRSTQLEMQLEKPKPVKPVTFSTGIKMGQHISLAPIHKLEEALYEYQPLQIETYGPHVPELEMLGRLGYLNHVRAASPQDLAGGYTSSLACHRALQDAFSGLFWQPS
CDK4, sequence (P11802 whole entry, species assumed): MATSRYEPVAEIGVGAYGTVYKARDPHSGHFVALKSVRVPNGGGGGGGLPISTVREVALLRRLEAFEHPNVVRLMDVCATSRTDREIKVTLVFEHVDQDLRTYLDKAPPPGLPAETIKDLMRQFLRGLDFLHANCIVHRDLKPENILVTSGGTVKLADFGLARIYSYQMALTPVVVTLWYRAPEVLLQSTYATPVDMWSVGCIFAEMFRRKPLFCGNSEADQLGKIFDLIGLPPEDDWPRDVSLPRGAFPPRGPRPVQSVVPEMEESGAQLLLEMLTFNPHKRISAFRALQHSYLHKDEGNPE
CDK4, sequence (P24385 whole entry partner, species assumed): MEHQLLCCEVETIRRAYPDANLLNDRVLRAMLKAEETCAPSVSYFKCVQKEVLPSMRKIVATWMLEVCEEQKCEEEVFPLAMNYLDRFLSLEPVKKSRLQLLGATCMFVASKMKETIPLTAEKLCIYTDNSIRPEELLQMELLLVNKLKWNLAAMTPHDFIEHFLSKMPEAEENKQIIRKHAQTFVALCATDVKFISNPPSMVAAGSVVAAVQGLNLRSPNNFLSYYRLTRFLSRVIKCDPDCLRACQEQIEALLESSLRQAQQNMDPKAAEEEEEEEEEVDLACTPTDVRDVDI
CDK8, sequence (P24863 whole entry, canonical isoform): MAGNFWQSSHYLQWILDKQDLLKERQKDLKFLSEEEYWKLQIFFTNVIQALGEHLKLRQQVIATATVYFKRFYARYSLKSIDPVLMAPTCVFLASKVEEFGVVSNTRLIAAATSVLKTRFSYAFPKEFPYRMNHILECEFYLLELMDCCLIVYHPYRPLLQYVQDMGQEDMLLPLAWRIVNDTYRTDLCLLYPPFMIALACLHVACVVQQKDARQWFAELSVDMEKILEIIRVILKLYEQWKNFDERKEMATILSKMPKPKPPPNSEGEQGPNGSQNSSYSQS
CDK8, sequence (P49336 whole entry, canonical isoform): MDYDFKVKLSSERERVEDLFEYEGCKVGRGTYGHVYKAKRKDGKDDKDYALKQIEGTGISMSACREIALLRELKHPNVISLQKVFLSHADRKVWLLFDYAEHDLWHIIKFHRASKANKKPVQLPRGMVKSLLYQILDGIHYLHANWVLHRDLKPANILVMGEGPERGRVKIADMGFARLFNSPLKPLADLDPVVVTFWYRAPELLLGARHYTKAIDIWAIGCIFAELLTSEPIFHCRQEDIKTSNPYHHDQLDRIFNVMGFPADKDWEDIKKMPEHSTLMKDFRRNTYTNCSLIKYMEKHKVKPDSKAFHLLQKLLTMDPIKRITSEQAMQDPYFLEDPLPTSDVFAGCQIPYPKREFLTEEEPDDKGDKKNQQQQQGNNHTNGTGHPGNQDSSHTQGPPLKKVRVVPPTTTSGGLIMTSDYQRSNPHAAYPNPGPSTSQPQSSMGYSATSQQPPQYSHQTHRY
CDK3, sequence (Q00526 whole entry): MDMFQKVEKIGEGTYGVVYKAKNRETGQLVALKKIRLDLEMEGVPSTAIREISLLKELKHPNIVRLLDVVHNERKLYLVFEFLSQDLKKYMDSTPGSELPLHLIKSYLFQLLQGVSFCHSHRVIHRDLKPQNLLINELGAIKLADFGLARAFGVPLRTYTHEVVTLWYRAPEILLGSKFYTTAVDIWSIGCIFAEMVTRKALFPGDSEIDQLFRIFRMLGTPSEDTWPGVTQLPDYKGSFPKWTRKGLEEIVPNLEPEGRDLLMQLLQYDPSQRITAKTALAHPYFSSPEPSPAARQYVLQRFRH
CDK3, sequence (P24864 whole entry, further chain): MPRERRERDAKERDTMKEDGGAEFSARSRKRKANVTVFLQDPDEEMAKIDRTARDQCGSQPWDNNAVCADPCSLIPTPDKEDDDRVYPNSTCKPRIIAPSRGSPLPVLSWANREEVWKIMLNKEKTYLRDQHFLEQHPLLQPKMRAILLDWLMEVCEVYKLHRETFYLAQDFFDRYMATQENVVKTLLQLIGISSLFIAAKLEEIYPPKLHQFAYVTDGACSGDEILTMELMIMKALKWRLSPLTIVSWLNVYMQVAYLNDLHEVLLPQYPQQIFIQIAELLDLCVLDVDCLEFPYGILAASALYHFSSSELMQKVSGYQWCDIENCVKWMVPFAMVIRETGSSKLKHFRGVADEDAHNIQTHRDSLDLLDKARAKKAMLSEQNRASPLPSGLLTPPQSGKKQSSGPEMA
CDK1, sequence (P06493 whole entry, species assumed): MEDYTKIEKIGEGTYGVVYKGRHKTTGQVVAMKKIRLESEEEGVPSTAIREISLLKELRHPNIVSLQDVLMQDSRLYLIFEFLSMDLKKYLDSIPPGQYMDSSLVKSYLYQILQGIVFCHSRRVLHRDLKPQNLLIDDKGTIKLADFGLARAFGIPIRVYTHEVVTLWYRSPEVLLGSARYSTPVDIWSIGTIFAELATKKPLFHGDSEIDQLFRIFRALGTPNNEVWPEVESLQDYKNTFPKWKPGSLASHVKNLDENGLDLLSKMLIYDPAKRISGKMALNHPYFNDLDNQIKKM
CDK1, sequence (P14635 whole entry partner, species assumed): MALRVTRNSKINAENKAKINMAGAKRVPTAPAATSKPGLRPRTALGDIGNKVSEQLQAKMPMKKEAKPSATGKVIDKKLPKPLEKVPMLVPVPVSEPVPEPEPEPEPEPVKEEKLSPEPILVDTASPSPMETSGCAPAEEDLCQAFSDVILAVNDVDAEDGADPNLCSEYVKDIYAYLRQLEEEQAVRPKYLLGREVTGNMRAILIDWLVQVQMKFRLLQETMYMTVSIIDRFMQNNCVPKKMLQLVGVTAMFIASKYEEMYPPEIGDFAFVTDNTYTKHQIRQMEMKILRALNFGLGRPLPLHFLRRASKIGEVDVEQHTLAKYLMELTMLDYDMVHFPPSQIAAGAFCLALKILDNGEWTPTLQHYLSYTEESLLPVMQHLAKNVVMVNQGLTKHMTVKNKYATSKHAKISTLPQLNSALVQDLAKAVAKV

Row | Structure (SMILES) | Inhibitory potency CDK1 (CDK1) | Inhibitory potency CDK2 (CDK2) | Inhibitory potency CDK3 (CDK3) | Inhibitory potency CDK4 (CDK4) | Inhibitory potency CDK6 (CDK6) | Inhibitory potency CDK7 (CDK7) | Inhibitory potency CDK8 (CDK8) | Inhibitory potency CDK9 (CDK9)
1 | CN1CC[C@H](c2c(O)cc(O)c3c(=O)cc(-c4ccccc4Cl)oc23)[C@H](O)C1 [Flavopiridol HCl, Flavopiridol Hydrochloride] | +++ | +++ | + | +++ | +++ | + |  | 
2 | CC(C)c1c2cc(-c3ccnc(NC4CCC(NC5CCOCC5)CC4)n3)ccc2nn1C (stereo not drawn) [LY2857785] |  |  |  |  |  | + | +++ | +++
